Results as given in patent US12606833B2, “Modified mini-nucleosome core proteins and use in nucleic acid delivery” (priority 2020, dated 2026).
Where no end group is shown, it is not given here. [ ]: non-standard residue; d: D form. LINKER = not defined here

Columns and labels:
[1] = tested on: retina and RPE cells; experiment: GFP expression in retina and RPE after intravitreal injection in mice; type: in vivo, Balb/c mice; conditions: 1.5 micrograms, GFP plasmid, FIGS. 10 and 12
Procedure: In the present Example, Balb/c mice were anesthetized by IP injection with Ketamine/Xylazine (90-100 mg/kg+10 mg/kg) and positioned underneath a microscope. Mice eyes were dilated with topical Tropicamide (1%) and 1 μl of loaded mini-nucleosomes (total dose 1.5 micrograms in mice) were injected into the vitreous cavity using 32 gauge blunt needle passing through the incision made by a 25-gauge needle below the limbus. At various time points, mice were perfused with 10 ml of 1xPBS, and then sacrificed using standard techniques. Mice were enucleated and eyecups were collected and incubated in 4% paraformaldehyde overnight. The eyecups were washed with 1xPBS, then immersed in 15% sucrose for few hours and then in 30% sucrose solution overnight for cryopreservation. The eyecups were then placed in a plastic vial and frozen using OCT compound for cryo-sectioning. 10-micron thick tissue sections were obtained for staining. The retinal sections were mounted with mounting media with or without DAPI, coverslip and sealed. Images were acquired by Leica SP5. For wholemount imaging, eyecups were fixed in 4% paraformaldehyde overnight. Eyecups were washed in 1xPBS, retina was removed and the remaining eyecup or RPE wholemount was processed for staining. The RPE tissue was wholemounted with mounting media, coverslip and sealed. Images were acquired by Leica SP5.

[2] = tested on: RPE cells; experiment: GFP expression in rat retinal tissue after intraocular delivery; type: in vivo; conditions: rat eyes, FIG. 11
Excerpt: To selectively transduce photoreceptors, the present Example utilized core proteins like those of SEQ ID NO:394. […] This neuronal attachment domain has not been previously applied for non-viral vectors to target neurons. The present disclosure provides that this neuronal targeted vector can transduce neurons in the brain via local or systemic administration. The present disclosure further provides for targeting photoreceptor binding and internalization by incorporating lectin binding domains (described in Table 4) in mini-nucleosomes for attachment to photoreceptor extracellular matrix to enhance uptake. […] Moreover, more than one domain could be utilized to selectively transduce a plurality of diverse cell types. This core protein (SEQ ID NO: 390) with integrin binding properties may also be utilized for delivery of nucleic acids to other cell types that express high levels of aVB5 integrin. The present disclosure further provides use of other intra-ocular injection techniques such as subretinal, suprachoroidal, intra-cameral, or topical administration to target photoreceptors, RPE, Mueller cells or other cell types in the retina.

[3] = Transmission Electron Microscopy (TEM) of loaded mini-nucleosomes; type: physicochemical; conditions: luciferase plasmid (SEQ ID NO: 396) condensed with core protein, formulated in water
Procedure: To form loaded mini-nucleosomes represented in FIG. 7, core proteins were synthesized by solid phase synthesis using trifluoroacetate buffers. 200 micrograms of DNA (SEQ ID NO: 396) were added to 1 milligram of lyophilized core proteins and vortexed together, and purified to produce loaded mini-nucleosomes (FIG. 7). Buffer exchange was performed and final formulation of mini-nucleosome was made in sterile, endotoxin free water. 1 microgram of each kind of mini-nucleosomes was diluted in water and then placed on grids that were stained with freshly prepared in 0.75% uranyl acetate in methanol solution for two minutes. Grids were dipped in 100% ethanol and then blotted into lens absorbent paper. The grids were then air-dried for few minutes with film side up and taken for imaging with Hammatsu ORCA HR camera (FIG. 7).

[4] = tested on: lung epithelium; experiment: GFP expression after intranasal delivery (lung sections with CFTR staining, whole lung imaging, trachea); type: in vivo, Balb/c mice; conditions: 5-week post injection, FIGS. 15 and 16
Procedure: In the present Example, Balb/c mice were anesthetized by IP injection with Ketamine/Xylazine (90-100 mg/kg+10 mg/kg) and the anesthetized mice were positioned underneath a microscope for visual of the nasal area for intranasal delivery. 1 μl of loaded mini-nucleosome (SEQ ID NO: 390+GFP plasmid) solution was delivered into the nasal cavity every few seconds until 12 microliters were delivered to each nasal side. Total dose of 25 micrograms was delivered. Following sacrifice, mice lung was processed to obtain 10 micron thick sections. Sections were washed in PBS and incubated in blocking buffer (0.1% TritonX-100, 1% BSA, 3% donkey serum) for 1 hr and then incubated in CFTR antibody (prepared on blocking buffer) blocking buffer overnight at 4 degree Celsius. Next day wash in PBS 3×5 min and incubated in AlexaFlour-555 (Donkey Anti-rabbit IgG secondary) in blocking buffer at RT for 1 hour and washed in PBS 3×5 min. Mounting media was added and coverslip was applied and sealed. Native fluorescence of GFP was obtained in the 486 nm channel of Leica SP5 scope in the 486-nm wavelength and CFTR expression in the 555-nm channel.
In the present Example, whole lung tissue and biodistribution via mini-nucleosome was also evaluated (FIG. 15). […] Whole tissues were placed in the Odyssey imager for detecting GFP native fluorescence.

[5] = tested on: skeletal muscle cells; experiment: GFP expression in leg muscle after intramuscular injection (dystrophin immunolabeling); type: in vivo, Balb/c mice; conditions: 17.5 μg per leg, 3-month time point, FIG. 18
Procedure: Balb/c mice were anesthetized by IP injection with Ketamine/Xylazine (90-100 mg/kg+10 mg/kg) and several loaded mini-nucleosomes were injected into both leg muscle at 17.5 μg doses per leg using an insulin syringe (Total dose 35 micrograms per mice). Mice were sacrificed at various time points and leg muscle were obtained for tissue sections. […] One skilled in the art may contemplate combining such domains with other domains known for muscle tropism.
To validate muscle specificity of expression of genes encoded by the nucleic acid cargo, we utilized dystrophin immunolabeling as an endogenous secondary marker. […] Native fluorescence of GFP was obtained in the 486-nm channel of Leica SP5 scope. Dystrophin in red is the RFP channel (555-nm). Untransduced muscle cells in figure also serve as internal control for differentiation between GFP signal and autofluorescence.

| Substance | GFP expression / uptake in mouse retina and RPE [1] | Shape of loaded mini-nucleosome (TEM) [3] | GFP fluorescence in muscle tissue sections [5] | further results |
| --- | --- | --- | --- | --- |
| KKRHRK-[LINKER]-LRE-[LINKER]KRHRKLRRRRRLKRHRKKRHRK-[LINKER]-LRE-[LINKER]-K (KKRHRK[LINKER]LRE[LINKER]KRHRKLRRRRRLKRHRKKRHRK[LINKER]LRE[LINKER]K; not fully specified; numbers in words are those of the source; reading uncertain; also: linkers of unspecified length between segments (after 6, 9, 31, 34)) [SEQ ID NO: 394] | transduction into ganglion cells, bipolar cells and photoreceptors |  |  |  |
| KKKRK-[LINKER]-NGR-[LINKER]-KRKRKKRHRKKKKRRRRKRHRK-[LINKER]-NGR-[LINKER]-KKK (KKKRK[LINKER]NGR[LINKER]KRKRKKRHRKKKKRRRRKRHRK[LINKER]NGR[LINKER]KKK; not fully specified; numbers in words are those of the source; reading uncertain; also: linkers of unspecified length between segments (after 5, 8, 30, 33)) [SEQ ID NO: 390] |  | rod/lobular shaped |  | GFP expression in rat retinal tissue [2]: transduce RPE cells in rat eyes exclusively; GFP native fluorescence in whole lung tissue / sustained expression [4]: high levels of sustained expression |
| KKKRHRKRKRKRKRRRRKKK-[LINKER]-ASSLNIAK-[LINKER]-RRRR (KKKRHRKRKRKRKRRRRKKK[LINKER]ASSLNIAK[LINKER]RRRR; not fully specified; numbers in words are those of the source; reading uncertain; also: linkers of unspecified length between segments (after 20 and 28)) [SEQ ID NO: 389] |  |  | didn't exhibit GFP fluorescence |  |
| KKKRHRKKKKK-[LINKER]-RGD-[LINKER]-KKKK-[LINKER]-NTQIH-[LINKER]-RRRRR-[LINKER]-TPH-[LINKER]-KK (KKKRHRKKKKK[LINKER]RGD[LINKER]KKKK[LINKER]NTQIH[LINKER]RRRRR[LINKER]TPH[LINKER]KK; not fully specified; numbers in words are those of the source; reading uncertain; also: linkers of unspecified length between segments (after 11, 14, 18, 23, 28, 31)) [SEQ ID NO: 391] |  | mixture of circular and rod like molecules | sharp green fluorescence in skeletal muscle cells |  |
| KKKRK-[LINKER]-KTKKK-[LINKER]-AK-[LINKER]-KALKKK-[LINKER]-KKGKKKKRRRRKAAPKK (KKKRK[LINKER]KTKKK[LINKER]AK[LINKER]KALKKK[LINKER]KKGKKKKRRRRKAAPKK; not fully specified; numbers in words are those of the source; reading uncertain; also: linkers of unspecified length between segments (after 5, 10, 12, 18)) [SEQ ID NO: 392] | enhanced uptake into the RPE |  |  |  |
